# Reference: publication PMC9747124 (Clinical and Translational Science, 2022)
# Read-outs that look alike come from different tables or passages of the source.
# How the values were obtained:
# patients with RMS [1] = type: in vivo, human
# [2] = data not shown for high-fat or moderate-fat meal; internal report; cited from earlier work
# [3] = Population PK model of evobrutinib; type: in vivo, human; settings: for Increase of bioavailability with food compared with when fasted: population PK model covariate effect
# patients with RMS [4] = settings: 75 mg q.d. while fasted; over 24 weeks, maintained through week 48; cited from earlier work
# patients with RMS [5] = settings: cited from earlier work; for Annualized relapse rate (ARR): 75 mg b.i.d.
# [6] = between-participant variability, final PK model
structure (smiles),measurement,setting,value
"C=CC(=O)N1CCC(CNc2ncnc(N)c2-c2ccc(Oc3ccccc3)cc2)CC1 [evobrutinib, Evobrutinib]","exp(B1), level of ARR for high values of the AUC",patients with RMS [1]; ARR versus exposure model estimate,0.11
same,Mean ARR,patients with RMS [1]; highest three exposure quintiles (starting at an AUC of 356 ng/ml h),≤ 0.14
same,Increase of bioavailability by dosing with food,[2],about 50%
same,"Patients exceeding AUC0-24,SS > 400 ng/ml h",[3]; 75 mg b.i.d. treatment arm in the phase II study,all patients
same,"ω^2 ALAG, Estimate (RSE %)",[3]; [6],0.317 (83.3)
same,"ω^2 CL/F, Estimate (RSE %)",[3]; [6],0.257 (18.1)
same,"ω^2 D1 fasted, Estimate (RSE %)",[3]; [6],0.784 (38.3)
same,"ω^2 D1 fed, Estimate (RSE %)",[3]; [6],0.784 (38.3)
same,"ω^2 Q/F, Estimate (RSE %)",[3]; [6],1.25 (18.2)
same,"ω^2 V2/F, Estimate (RSE %)",[3]; [6],0.566 (32.9)
same,"ω^2 V3/F, Estimate (RSE %)",[3]; [6],1.82 (15.2)
same,"Cov CL/F + ALAG, Estimate (RSE %)","[3]; covariance, final PK model",0.0572 (120)
same,"Cov Q/F + V3/F, Estimate (RSE %)","[3]; covariance, final PK model",1.09 (17.3)
same,Residual variability: Additive error,[3]; final PK model,0.272 ng/mL
same,Residual variability: Proportional error,[3]; final PK model,0.509
same,ALAG (lag time),"[3]; final PK model, week 48",0.197 h
same,K a (absorption rate constant),"[3]; final PK model, week 48",0.793 h⁻¹
same,V3/F (apparent volume of distribution of the peripheral compartment),"[3]; final PK model, week 48",385 L
same,CL/F (apparent clearance),"[3]; final PK model, week 48, value for healthy participants",269 L/h
same,Vd/F,"[3]; human, in vivo",50.8 L
same,AUC(0-t),"[3]; human, in vivo, 75 mg",835 ng·h/mL
same,Cmax,"[3]; human, in vivo, 75 mg",168 ng/mL
same,Increase of bioavailability with food compared with when fasted,[3],about 50%
same,Increase of bioavailability with food compared with when fasted,[3]; listed as Evobrutinib,49%
same,Total cumulative number of T1 Gd+ lesions compared with placebo,patients with RMS [4],reduction
same,Clinical efficacy on any end points compared with placebo,patients with RMS [5]; 25 mg q.d.,did not show clinical efficacy
same,Annualized relapse rate (ARR),patients with RMS [5]; 48-week double-blind period,0.11
same,Annualized relapse rate (ARR),patients with RMS [5]; 108-week period (48-week double-blind plus 60-week open-label extension),0.12
